{
  "source": "ChEMBL document CHEMBL2062374",
  "about": "“Chemoenzymatic synthesis and evaluation of 3-azabicyclo[3.2.0]heptane derivatives as dopaminergic ligands” (Eur J Med Chem, 2012)",
  "assay_type_in_all_cases": "cell-based",
  "key": {"[1]": {"molecular_target": "D(1A) dopamine receptor (Homo sapiens, UniProt P21728)", "sequence (P21728 whole entry)": "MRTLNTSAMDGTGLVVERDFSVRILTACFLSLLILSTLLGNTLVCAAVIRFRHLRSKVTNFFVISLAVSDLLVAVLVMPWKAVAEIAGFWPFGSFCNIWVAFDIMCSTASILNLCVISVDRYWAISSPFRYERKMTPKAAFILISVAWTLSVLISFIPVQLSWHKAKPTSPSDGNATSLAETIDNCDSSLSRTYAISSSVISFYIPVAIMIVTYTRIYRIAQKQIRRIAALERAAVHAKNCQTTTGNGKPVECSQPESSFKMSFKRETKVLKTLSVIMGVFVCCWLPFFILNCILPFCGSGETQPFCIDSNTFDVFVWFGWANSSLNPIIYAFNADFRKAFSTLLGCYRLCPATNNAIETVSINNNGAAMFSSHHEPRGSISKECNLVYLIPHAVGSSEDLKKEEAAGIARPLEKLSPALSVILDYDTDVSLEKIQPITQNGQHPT", "assay": "Displacement of [3H]SCH23390 from human D1 receptor expressed in HEK293 cells"}, "[2]": {"molecular_target": "D(2) dopamine receptor (Homo sapiens, UniProt P14416)", "sequence (P14416 whole entry)": "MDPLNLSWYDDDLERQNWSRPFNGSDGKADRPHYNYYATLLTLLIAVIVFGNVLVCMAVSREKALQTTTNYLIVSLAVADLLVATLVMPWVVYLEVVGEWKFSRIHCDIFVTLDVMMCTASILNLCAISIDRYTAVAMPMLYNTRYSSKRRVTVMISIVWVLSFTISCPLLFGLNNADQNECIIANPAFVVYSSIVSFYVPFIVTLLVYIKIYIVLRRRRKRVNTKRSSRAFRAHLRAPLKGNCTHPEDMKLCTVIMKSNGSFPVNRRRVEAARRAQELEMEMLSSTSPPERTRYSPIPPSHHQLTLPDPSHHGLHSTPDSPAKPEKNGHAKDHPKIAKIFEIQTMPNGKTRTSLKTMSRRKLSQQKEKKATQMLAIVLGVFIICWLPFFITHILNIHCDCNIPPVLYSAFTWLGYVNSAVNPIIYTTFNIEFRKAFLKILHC", "assay": "Displacement of [3H]raclopride from human D2L receptor expressed in HEK293 cells"}, "[3]": {"molecular_target": "D(3) dopamine receptor (Homo sapiens, UniProt P35462)", "sequence (P35462 whole entry)": "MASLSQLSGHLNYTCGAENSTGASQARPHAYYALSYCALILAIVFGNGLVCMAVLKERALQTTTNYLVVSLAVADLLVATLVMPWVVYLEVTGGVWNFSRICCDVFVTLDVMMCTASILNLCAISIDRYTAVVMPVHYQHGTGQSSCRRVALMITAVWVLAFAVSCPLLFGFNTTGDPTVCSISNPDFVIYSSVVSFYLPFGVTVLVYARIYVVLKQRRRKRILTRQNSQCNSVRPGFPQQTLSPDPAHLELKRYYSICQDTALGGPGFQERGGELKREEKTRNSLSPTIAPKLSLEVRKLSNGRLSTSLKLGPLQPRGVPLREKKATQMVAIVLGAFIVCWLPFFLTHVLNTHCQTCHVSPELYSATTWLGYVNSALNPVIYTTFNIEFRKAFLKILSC", "assay": "Displacement of [3H]raclopride from human D3 receptor expressed in HEK293 cells"}},
  "data": [
    {"smiles": "CCN(CC)[C@@H]1[C@@H](CO)[C@H]2CN(Cc3ccccc3)[C@H](c3ccccc3)[C@H]21", "values": [
      {"measurement": "Ki", "setting": "[1]", "result": 42, "unit": "µM"},
      {"measurement": "Ki", "setting": "[2]", "result": 12, "unit": "µM"},
      {"measurement": "Ki", "setting": "[3]", "result": 13.2, "unit": "µM"}
    ]},
    {"smiles": "CCN(CC)[C@H]1[C@H](CO)[C@@H]2CN(Cc3ccccc3)[C@@H](c3ccccc3)[C@@H]21", "values": [
      {"measurement": "Ki", "setting": "[1]", "result": 22, "unit": "µM"},
      {"measurement": "Ki", "setting": "[2]", "result": 1.7, "unit": "µM"},
      {"measurement": "Ki", "setting": "[3]", "result": 1.3, "unit": "µM"}
    ]},
    {"smiles": "OC[C@H]1[C@H]2CN(Cc3ccccc3)[C@H](c3ccccc3)[C@H]2[C@@H]1N1CCCC1", "values": [
      {"measurement": "Ki", "setting": "[1]", "result": 40.8, "unit": "µM"},
      {"measurement": "Ki", "setting": "[2]", "result": 7.4, "unit": "µM"},
      {"measurement": "Ki", "setting": "[3]", "result": 11, "unit": "µM"}
    ]},
    {"smiles": "OC[C@@H]1[C@@H]2CN(Cc3ccccc3)[C@@H](c3ccccc3)[C@@H]2[C@H]1N1CCCC1", "values": [
      {"measurement": "Ki", "setting": "[1]", "result": 22, "unit": "µM"},
      {"measurement": "Ki", "setting": "[2]", "result": 0.25, "unit": "µM"},
      {"measurement": "Ki", "setting": "[3]", "result": 0.28, "unit": "µM"}
    ]},
    {"smiles": "CCN(CC)[C@@H]1[C@@H](CO)[C@H]2CN(Cc3ccccc3)[C@H](C)[C@H]21", "values": [
      {"measurement": "Ki", "setting": "[1]", "result": "> 100", "unit": "µM"},
      {"measurement": "Ki", "setting": "[2]", "result": 38, "unit": "µM"},
      {"measurement": "Ki", "setting": "[3]", "result": 21, "unit": "µM"}
    ]},
    {"smiles": "CCN(CC)[C@H]1[C@H](CO)[C@@H]2CN(Cc3ccccc3)[C@@H](C)[C@@H]21", "values": [
      {"measurement": "Ki", "setting": "[1]", "result": "> 100", "unit": "µM"},
      {"measurement": "Ki", "setting": "[2]", "result": 3.9, "unit": "µM"},
      {"measurement": "Ki", "setting": "[3]", "result": 1.77, "unit": "µM"}
    ]},
    {"smiles": "C[C@@H]1[C@@H]2[C@H](CN1Cc1ccccc1)[C@H](CO)[C@H]2N1CCCC1", "values": [
      {"measurement": "Ki", "setting": "[1]", "result": "> 100", "unit": "µM"},
      {"measurement": "Ki", "setting": "[2]", "result": 66, "unit": "µM"},
      {"measurement": "Ki", "setting": "[3]", "result": 36, "unit": "µM"}
    ]},
    {"smiles": "C[C@H]1[C@H]2[C@@H](CN1Cc1ccccc1)[C@@H](CO)[C@@H]2N1CCCC1", "values": [
      {"measurement": "Ki", "setting": "[1]", "result": "> 100", "unit": "µM"},
      {"measurement": "Ki", "setting": "[2]", "result": 16, "unit": "µM"},
      {"measurement": "Ki", "setting": "[3]", "result": 11, "unit": "µM"}
    ]},
    {"smiles": "CCN(CC)[C@@H]1[C@@H](CO)[C@H]2CN(Cc3ccccc3)[C@H](c3ccc(Br)cc3)[C@H]21", "values": [
      {"measurement": "Ki", "setting": "[1]", "result": 7, "unit": "µM"},
      {"measurement": "Ki", "setting": "[2]", "result": 5, "unit": "µM"},
      {"measurement": "Ki", "setting": "[3]", "result": 7.93, "unit": "µM"}
    ]},
    {"smiles": "CCN(CC)[C@H]1[C@H](CO)[C@@H]2CN(Cc3ccccc3)[C@@H](c3ccc(Br)cc3)[C@@H]21", "values": [
      {"measurement": "Ki", "setting": "[1]", "result": 8, "unit": "µM"},
      {"measurement": "Ki", "setting": "[2]", "result": 2, "unit": "µM"},
      {"measurement": "Ki", "setting": "[3]", "result": 2.14, "unit": "µM"}
    ]},
    {"smiles": "CCN(CC)[C@@H]1[C@@H](CO)[C@H]2CN(Cc3ccccc3)[C@H](c3ccccn3)[C@H]21", "values": [
      {"measurement": "Ki", "setting": "[1]", "result": "> 100", "unit": "µM"},
      {"measurement": "Ki", "setting": "[2]", "result": 42, "unit": "µM"},
      {"measurement": "Ki", "setting": "[3]", "result": 36, "unit": "µM"}
    ]},
    {"smiles": "CCN(CC)[C@H]1[C@H](CO)[C@@H]2CN(Cc3ccccc3)[C@@H](c3ccccn3)[C@@H]21", "values": [
      {"measurement": "Ki", "setting": "[1]", "result": "> 100", "unit": "µM"},
      {"measurement": "Ki", "setting": "[2]", "result": 12, "unit": "µM"},
      {"measurement": "Ki", "setting": "[3]", "result": 8.8, "unit": "µM"}
    ]},
    {"smiles": "OC[C@H]1[C@H]2CN(Cc3ccccc3)[C@H](c3ccccc3)[C@H]2[C@@H]1N1CCCCC1", "values": [
      {"measurement": "Ki", "setting": "[1]", "result": 44, "unit": "µM"},
      {"measurement": "Ki", "setting": "[2]", "result": 7, "unit": "µM"},
      {"measurement": "Ki", "setting": "[3]", "result": 5.3, "unit": "µM"}
    ]},
    {"smiles": "OC[C@@H]1[C@@H]2CN(Cc3ccccc3)[C@@H](c3ccccc3)[C@@H]2[C@H]1N1CCCCC1", "values": [
      {"measurement": "Ki", "setting": "[1]", "result": 49, "unit": "µM"},
      {"measurement": "Ki", "setting": "[2]", "result": 2, "unit": "µM"},
      {"measurement": "Ki", "setting": "[3]", "result": 1.5, "unit": "µM"}
    ]}
  ]
}
